Source: patent publication US6291496A, “Treating cancers associated with overexpression of class I family of receptor tyrosine kinases” (priority 1999, dated 2001)

What was measured:
[1] = test system: HER-2/neu promoter; experiment: transient transfection assay, human HER-2/neu promoter construct ligated to luciferase, 184B5/HER cells; format: cell-based; conditions: 0-25 μM, 24 hours, FIG. 1
Procedure: To determine whether PPARγ ligands inhibit HER-2/neu promoter activity, a transient transfection assay was performed. 184B5/HER cells were transfected with 1.8 μg of a human HER-21neu promoter construct ligated to luciferase (-1571/--24) and 0.2 μg pSVβgal (Promega Corp., Madison Wis.). The HER-2/neu promoter (-1571/--24) is described in Hudson, L. G. et al, J. Biol. Chem. 265, 4389-4393 (3/90), the whole of which is incorporated herein by reference. The promoter constructs are described in Hudson, L. G., et al, Cell 62, 1165-1175(1990). 184B5/HER cells were seeded at a density of5×10^4 cells well in 6-well dishes and grown to 50-60% confluence. For each well, 2 μg of […] DNA were introduced into cells using 8 μg of LIPOFECTAMINE (Life Technologies, Inc., Grand Island, N.Y.) as per the manufacturer's instructions. Following transfection, the cells were treated with ciglitazone (0, 5, 10, 15, 20 and 25 μM) or 15d-PGJ2 (0, 5, 10, 15, 20 and 25 μM) for 24 hours.
The activities of luciferase and β-galactosidase were measured in cellular extract as described in Mestre, J. R. et al, Cancer Res. 57, 1081-1085 (1997).

[2] = test system: HER-2/neu mRNA; experiment: Northern blotting for HER-2/neu mRNA in 184B5/HER cells; format: cell-based, human; conditions: 25 μM ciglitazone or 20 μM 15-d-PGJ2
Procedure: Northern blotting was performed to evaluate whether PPARγ ligands decrease levels of HER-2/neu mRNA. 184B5/HER cells were treated with vehicle (0.01% dimethyl sulfoxide), 25 μM ciglitazone or 20 μM 15-d-PGJ2. Total cellular RNA was isolated from cell monolayers using an RNA isolation kit from Qiagen Inc. 10 μg of RNA was added to each lane. The 10 μg of total cellular RNA per lane were electrophoresed in a formaldehyde-containing 1.2% agarose gel and transferred to nylon-supported membranes. The blot was hybridized with probes that recognized HER-2/neu mRNA (Santa Cruz Biotechnology, Inc., Santa Cruz, Calif.) and 18S rRNA cDNA (Ambion, Inc., Austin, Tex.).

[3] = target: human PPARγ binding domain; conditions: scintillation proximity assay, radioligand [3H]BRL 49653; values reported in Henke et al, Collins et al, Cobb et al; cited from earlier work
[4] = test system: HER-2/neu in 184B5/HER cells; experiment: immunoblot for HER-2/neu in 184B5/HER cells; format: cell-based, human; conditions: 25 μM ciglitazone or 20 μM 15-d-PGJ2, 24 hours
Excerpt: The 184B5/HER cell line was obtained from a collaborator and was derived by stably transfecting 184B5 cells with a mutationally activated HER-2/neu oncogene; these cells form rapidly growing tumors when injected into athymic nude mice. The 184B5/HER cell line is described in Pierce, J. H., et al., Oncogene 6, 1189-1194 (1991). The BT-474 cell line is a human breast cancer adenocarcinoma cell line which overexpresses HER-2/neu, and was obtained from the American Type Culture Collection (Manassas, Va.) and bears accession number ATCC HBT-20.
184B5/HER cells were maintained in MEM-KBM mixed in a ratio of 1:1 (basal medium) containing epidermal growth factor (10 ng/ml), hydrocortisone (0.5 μg/ml), transferrin (10 μg/ml), gentamicin (5 μg/ml) and insulin (10 μg/ml) (growth medium). […] cells were grown to 60% confluence, trypsinized with 0.05% trypsin-2 mM ethylenediaminotetraacetic acid, and plated for experimental use. […]
184B5/HER cells were treated with vehicle (0.01% dimethylsulfoxide), 25 μM ciglitazone (Biomol, Plymouth Meeting, Pennsylvania) or 20 μM 15-d-PGJ2 (Biomol, Plymouth Meeting, Pennsylvania) for 24 hours. […] The protein concentration of the supernatant was measured by the method of Lowry, O. H., et al, J. Biol. Chem. 193, 265-275 (1951). […]

[5] = test system: non-small cell lung carcinoma where EGFR is overexpressed; experiment: Example VI: non-small cell lung carcinoma metastasized to liver; format: in vivo, human; conditions: patient, oral 5 mg/kg twice daily
Procedure: After one month, PPARγ ligand administration is continued in combination with infusion of cisplatin every four weeks at 60 mg/m^2 for 12 more weeks.

[6] = test system: HER-2/neu positive colon cancer; experiment: Example V: after resection of colon cancer; format: in vivo, human; conditions: patient, oral 5 mg/kg twice daily for five years after resection
[7] = test system: Stage IV EGFR positive breast cancer tumors; experiment: Example VIII: breast cancer with Stage IV EGFR positive tumors; format: in vivo, human; conditions: oral 5 mg/kg twice daily in combination with CETUXIMAB and Taxol

CC1(COc2ccc(CC3SC(=O)NC3=O)cc2)CCCCC1 (stereo not shown) [ciglitazone]
HER-2/neu promoter activity (luciferase normalized to β-galactosidase) [1]: inhibited HER-2 neu promoter activity in a dose-dependent fashion | amounts of HER-2/neu mRNA (Northern blot) [2]: decrease amounts of HER-2/neu mRNA | pKi in binding assay using the human PPARγ binding domain [3]: 5.51±0.09 | amount of HER-2/neu (immunoblot) [4]: decreased the amount of HER-2/neu | tumor burden [5]: reduced tumor burden | recurrence of colon cancer [6]: Recurrence of colon cancer does not occur | tumor burden [7]: reduced tumor burden
